Source: US9556437B2, “FAT1 gene in cancer and inflammation” (DEPARTMENT OF BIOTECHNOLOGY (DBT), priority 2012, dated 2017)
Entries after “also recorded” stand apart in the source; their conditions may differ.

Assays:
COX-2 = experiment: Western blot COX-2 protein; format: cell-based, human; conditions: U87MGsiFAT1 vs siControl
Protocol: Western Blotting Analyses: Cells were lysed in triple detergent buffer containing protease and phosphatase inhibitors (Sigma Aldrich), lysates were quantified by BCA kit (Pierce, Thermo Fisher Scientific, Rockford, Ill. USA) and electrophoresed in 10% SDS-PAGE and electroblotted on nitrocellulose membrane (Millipore, Billerica, Mass., USA). Membrane was blocked with 5% bovine serum albumin (BSA) in 1×TBS at 4° C. for overnight. Primary and secondary antibody was diluted in 5% BSA and 0.1% tween-20 in 1×TBS. Blot was incubated in primary antibody overnight at 4° C. followed by secondary antibody incubation for 2 hrs at room temperature. Blot was developed by BCIP-NBT (Promega, Madison, Wis., USA) and captured using Alpha Imager EP software.

[1] = test system: AP-1 transcriptional activity; experiment: AP-1 luciferase assay; format: cell-based, human; conditions: U87MGsiFAT1 vs U87siControl, p<0.01
Protocol: AP-1 and COX-2 Promoter Luciferase Assay: U87MG cells (40000 cells/well) were plated in 6-well plates in triplicate on day zero. On day 1, cells were transfected with siFAT1 and siControl. On day 2 cells were transiently transfected with 4×AP-1-luciferase reporter plasmids as described previously. Cells were transfected with 1 μg of AP-17× luciferase reporter plasmid, along with 50 ng of pRL-TK (Renilla luciferase) control plasmid using LIPOFECTAMINE2000 as the transfection reagent. After 48 hrs, the cells were lysed by 1× passive-lysis-buffer (Promega, Madison, Wis., USA) and assayed for luciferase activity as previously described. For COX-2 luciferase assay U87MG cells were transfected with siFAT1 and siControl on day 1 and after 4 hrs incubation were treated with 10 μM SR11302. On day2 cells were transiently transfected with COX-2 reporter plasmid and again treated with 10 μM SR11302. After 48 hrs, the cells were assayed for luciferase activity.

In the case of “siFAT1: FAT1 specific siRNA (Invitrogen), FAT Stealth RNAi siRNA-I (HSS103567), used for further experiments (sense CCCAACACACCUGUGGUCAUGGUAA; antisense UUACCAUGACCACAGGUGUGUUGGG; Stealth modification, chemistry not fully specified; listed as Homo sapiens)”, the COX-2 protein expression (COX-2) is reported as “Significant reduction; also recorded: decreased” and the “reduction in AP-1 luciferase activity” value [1] is reported as 2 fold.
